According to ChEMBL document CHEMBL5528039, “Discovery of a Macrocyclic Influenza Cap-Dependent Endonuclease Inhibitor” (J Med Chem, 2024):

Columns and labels:
Influenza A virus [1] = assay: Antiviral activity against Influenza A virus A/PR/8/34 (H1N1) infected in MDCK cells assessed as reduction in virus-induced cytopathic effect incubated for 5 days by CCK8 based microplate spectrophotometric analysis; format: functional, organism-based; conditions: 120 h; for EC90: time 5 day
[2] = Inhibition of influenza A virus A/WSN/33 (H1N1) RNA polymerase transfected in HEK293T/17 cells incubated for 24 hrs by dual luciferase reporter gene assay; format: cell-based; conditions: HEK293T/17, 24 h
Influenza A virus [3] = assay: Antiviral activity against Influenza A virus A/California/07/2009 (H1N1) infected in MDCK cells assessed as reduction in virus-induced cytopathic effect incubated for 5 days by CCK8 based microplate spectrophotometric analysis; format: functional, organism-based; conditions: 120 h
Influenza A virus [4] = assay: Antiviral activity against Influenza A virus A/California/2/2014 (H3N2) infected in MDCK cells assessed as reduction in virus-induced cytopathic effect incubated for 5 days by CCK8 based microplate spectrophotometric analysis; format: functional, organism-based; conditions: 120 h
Influenza B virus [5] = assay: Antiviral activity against Influenza B virus B/Lee/40 infected in MDCK cells assessed as reduction in virus-induced cytopathic effect incubated for 5 days by CCK8 based microplate spectrophotometric analysis; format: functional, organism-based; conditions: B/Lee/40, MDCK, 120 h
Influenza B virus [6] = assay: Antiviral activity against Influenza B virus B/Florida/78/2015 infected in MDCK cells assessed as reduction in virus-induced cytopathic effect incubated for 5 days by CCK8 based microplate spectrophotometric analysis; format: functional, organism-based; conditions: B/Florida/78/2015, MDCK, 120 h
[7] = Protein binding in mouse plasma assessed as unbound fraction at 400 uM incubated for 4 hrs by LC-MS/MS analysis; format: ADME, cell-free
[8] = Protein binding in human plasma assessed as unbound fraction at 400 uM incubated for 4 hrs by LC-MS/MS analysis; format: ADME, cell-free
[9] = Metabolic stability in human liver microsomes assessed as intrinsic clearance at 1 uM measured upto 60 mins in presence of NADPH by LC-MS/MS analysis; format: ADME, Microsome; conditions: 1 h
[10] = Clearance in BALB/c mouse at 2 mg/kg, iv measured after 24 hrs by LC-MS/MS analysis; format: ADME, organism-based; conditions: in vivo
[11] = Volume of distribution at steady state in BALB/c mouse at 2 mg/kg, iv measured after 24 hrs by LC-MS/MS analysis; format: ADME, organism-based; conditions: in vivo, read-out: Vdss
[12] = Half-life in BALB/c mouse at 2 mg/kg, iv measured after 24 hrs by LC-MS/MS analysis; format: ADME, organism-based; conditions: in vivo
[13] = AUC (0 to last) in BALB/c mouse at 2 mg/kg, iv measured after 24 hrs by LC-MS/MS analysis; format: ADME, organism-based; conditions: in vivo

## CN1C(=O)c2c(O)c(=O)ccn2N2[C@@H](c3ccccc3)c3ccccc3OCC[C@H]12
Influenza A virus [1]
  EC50: > 500 nM
  EC90: > 500 nM

## O=C1c2c(O)c(=O)ccn2N2[C@H](c3ccccc3)c3ccccc3OCC[C@H]2N1C1CCC1 (racemic)
Influenza A virus [1]
  EC50: 65 nM
  EC90: 120 nM

## CN1C(=O)c2c(O)c(=O)ccn2N2C(c3ccccc3)c3ccccc3OCCC12 (racemic)
Influenza A virus [1]
  EC50: > 1000 nM
  EC90: > 1000 nM

## CN1C(=O)c2c(O)c(=O)ccn2N2[C@H](c3ccccc3)c3ccc(F)c(F)c3OCC[C@@H]12 (racemic)
Influenza A virus [1]
  EC50: 50 nM
  EC90: 93 nM

## CN1C(=O)c2c(O)c(=O)ccn2N2[C@H](c3ccccc3)c3ccccc3OCC[C@@H]12
Influenza A virus [1]
  EC50: 14 nM
  EC90: 26 nM

## O=C1c2c(O)c(=O)ccn2N([C@@H]2c3ccccc3SCc3c2ccc(F)c3F)[C@@H]2COCCN12 [BALOXAVIR]
Influenza A virus [1]
  EC50: 2.1 nM
  EC90: 4.6 nM
[2]
  EC50: 5.46 nM
Influenza A virus [3]
  EC50: 1.4 nM
Influenza A virus [3]; time 5 day
  EC90: 3 nM
Influenza A virus [4]
  EC50: 1.2 nM
Influenza A virus [4]; time 5 day
  EC90: 1.8 nM
Influenza B virus [5]
  EC50: 21 nM
Influenza B virus [5]; time 5 day
  EC90: 43 nM
Influenza B virus [6]
  EC50: 4.8 nM
Influenza B virus [6]; time 5 day
  EC90: 7.4 nM
[7]
  fraction unbound at 4 h, 400 µM: 0.153
[8]
  fraction unbound at 4 h, 400 µM: 0.083
[9]
  CLint: < 8.6 µL/min/mg
[10]
  clearance: 61.6 mL/min/kg
[11]
  Vd: 14 L/kg
[12]
  half-life: 234 min
[13]
  AUC(0-t) at 24 h: 1.35 µM·h

## CN1C(=O)c2c(O)c(=O)ccn2N2[C@H](c3ccccc3Br)c3cc(F)c(F)cc3OCC[C@@H]12 (racemic)
Influenza A virus [1]
  EC50: 11 nM
  EC90: 18 nM
